One compound from ChEMBL document CHEMBL1681726, “Discovery of orally available tetrahydroquinoline-based glucocorticoid receptor agonists” (Bioorg Med Chem Lett, 2011) can be followed below.

Usually Ki stands for the equilibrium dissociation constant of an inhibitor or competing ligand from its target. Read a low Ki as tighter binding.

In one assay the target is T1, Glucocorticoid receptor (Homo sapiens, UniProt P04150).
T1 sequence (P04150 whole entry): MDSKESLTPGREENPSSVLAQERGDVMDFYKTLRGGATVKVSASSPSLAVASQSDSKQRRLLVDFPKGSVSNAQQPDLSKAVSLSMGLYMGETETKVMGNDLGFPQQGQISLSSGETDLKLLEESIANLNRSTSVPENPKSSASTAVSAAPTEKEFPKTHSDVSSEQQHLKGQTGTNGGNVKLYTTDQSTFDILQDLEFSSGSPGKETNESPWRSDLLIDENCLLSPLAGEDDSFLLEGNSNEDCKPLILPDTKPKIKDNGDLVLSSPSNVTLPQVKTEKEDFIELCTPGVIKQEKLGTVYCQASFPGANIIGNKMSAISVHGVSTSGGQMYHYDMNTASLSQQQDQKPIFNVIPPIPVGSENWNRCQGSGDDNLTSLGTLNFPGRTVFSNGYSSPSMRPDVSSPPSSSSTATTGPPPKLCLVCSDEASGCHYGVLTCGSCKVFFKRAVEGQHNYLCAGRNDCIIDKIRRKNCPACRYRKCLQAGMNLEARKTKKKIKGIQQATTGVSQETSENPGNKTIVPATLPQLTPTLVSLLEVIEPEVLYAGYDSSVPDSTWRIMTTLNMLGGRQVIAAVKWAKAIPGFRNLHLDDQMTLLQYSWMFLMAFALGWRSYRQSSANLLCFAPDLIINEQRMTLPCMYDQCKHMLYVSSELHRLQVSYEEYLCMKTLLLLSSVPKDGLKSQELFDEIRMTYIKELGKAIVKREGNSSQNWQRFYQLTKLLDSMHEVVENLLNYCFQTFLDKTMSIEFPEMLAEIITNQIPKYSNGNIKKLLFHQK
Put plainly: Displacement of radiolabeled Dexamethasone from GR.

Assay [1] concerns the target T2, Mineralocorticoid receptor (Homo sapiens, UniProt P08235).
T2 sequence (P08235 whole entry): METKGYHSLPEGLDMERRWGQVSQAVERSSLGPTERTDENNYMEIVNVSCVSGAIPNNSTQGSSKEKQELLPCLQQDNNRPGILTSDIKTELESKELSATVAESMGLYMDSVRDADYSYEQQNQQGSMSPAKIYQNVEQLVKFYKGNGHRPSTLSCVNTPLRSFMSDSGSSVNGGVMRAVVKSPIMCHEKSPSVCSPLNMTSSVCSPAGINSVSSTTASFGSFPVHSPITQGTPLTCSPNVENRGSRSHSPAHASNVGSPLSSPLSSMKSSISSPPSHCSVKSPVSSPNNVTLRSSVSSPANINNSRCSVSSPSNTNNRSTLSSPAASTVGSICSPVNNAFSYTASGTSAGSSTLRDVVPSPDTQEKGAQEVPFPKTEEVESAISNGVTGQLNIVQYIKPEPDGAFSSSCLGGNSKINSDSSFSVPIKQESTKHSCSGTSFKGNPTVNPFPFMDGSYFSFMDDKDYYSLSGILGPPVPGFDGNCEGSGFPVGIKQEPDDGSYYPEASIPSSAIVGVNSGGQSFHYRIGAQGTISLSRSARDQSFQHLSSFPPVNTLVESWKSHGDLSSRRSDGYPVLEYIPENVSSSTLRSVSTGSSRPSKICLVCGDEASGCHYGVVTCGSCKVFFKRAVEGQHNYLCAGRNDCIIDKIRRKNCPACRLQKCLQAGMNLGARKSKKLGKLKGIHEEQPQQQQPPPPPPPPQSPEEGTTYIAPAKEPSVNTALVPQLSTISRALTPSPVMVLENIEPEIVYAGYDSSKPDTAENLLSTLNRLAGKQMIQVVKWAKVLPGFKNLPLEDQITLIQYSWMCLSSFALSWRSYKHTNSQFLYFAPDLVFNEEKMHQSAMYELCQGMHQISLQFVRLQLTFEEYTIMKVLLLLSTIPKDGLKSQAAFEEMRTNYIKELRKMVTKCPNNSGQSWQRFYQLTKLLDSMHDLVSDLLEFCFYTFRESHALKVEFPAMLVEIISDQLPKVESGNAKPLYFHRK
Put plainly: Binding affinity to MR.

The target in a further assay is T3, Androgen receptor (Homo sapiens, UniProt P10275).
T3 sequence (P10275 whole entry): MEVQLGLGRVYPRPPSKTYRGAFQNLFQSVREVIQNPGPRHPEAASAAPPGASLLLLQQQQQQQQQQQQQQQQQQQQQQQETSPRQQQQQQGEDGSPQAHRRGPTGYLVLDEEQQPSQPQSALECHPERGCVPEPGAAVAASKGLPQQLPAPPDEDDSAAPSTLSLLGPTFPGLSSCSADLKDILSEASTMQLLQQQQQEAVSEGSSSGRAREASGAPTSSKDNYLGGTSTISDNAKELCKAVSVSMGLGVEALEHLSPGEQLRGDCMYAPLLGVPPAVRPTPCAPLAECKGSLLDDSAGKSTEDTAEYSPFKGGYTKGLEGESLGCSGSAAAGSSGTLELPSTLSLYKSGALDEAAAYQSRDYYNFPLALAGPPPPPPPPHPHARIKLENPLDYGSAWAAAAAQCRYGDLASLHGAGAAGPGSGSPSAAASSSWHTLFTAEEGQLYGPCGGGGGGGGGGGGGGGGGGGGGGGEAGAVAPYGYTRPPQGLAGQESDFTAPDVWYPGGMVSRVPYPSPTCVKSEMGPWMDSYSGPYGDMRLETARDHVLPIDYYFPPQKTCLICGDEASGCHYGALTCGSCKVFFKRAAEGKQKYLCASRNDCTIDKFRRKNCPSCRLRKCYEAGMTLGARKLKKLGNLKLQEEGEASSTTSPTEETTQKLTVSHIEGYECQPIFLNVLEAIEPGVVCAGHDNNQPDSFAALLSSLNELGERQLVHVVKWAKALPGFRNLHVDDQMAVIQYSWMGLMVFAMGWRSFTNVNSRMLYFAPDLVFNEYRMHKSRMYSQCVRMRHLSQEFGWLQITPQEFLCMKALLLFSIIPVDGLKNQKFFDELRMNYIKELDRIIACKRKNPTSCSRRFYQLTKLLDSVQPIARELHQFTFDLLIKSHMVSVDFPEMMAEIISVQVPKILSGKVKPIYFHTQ
Put plainly: Binding affinity to AR.

Assay [2] can be described thus: Selectivity ratio of Ki for GR to Ki for AR.

Turning to `C[C@H]1c2c(cc(F)c(-c3cccc4cc[nH]c34)c2F)NC(C)(C)[C@@H]1O` (racemic), the Ki at Glucocorticoid receptor turned out to be 0.0025 µM; in assay [1], 1.52 µM; on Androgen receptor it was 1.43 µM. The Ratio Ki in assay [2] is greater than 500.
